Reference: paper PMC4631478, “Structure of AadA from Salmonella enterica: a monomeric aminoglycoside (3′′)(9) adenyltransferase” (Acta Crystallographica Section D: Biological Crystallography, 2015)
Positions count from the first letter of the chain named. pKd: −log10 of the molar value. Like-named read-outs stand apart in the source and are kept apart here.

Experiments:
AadA wild type = molecular target: T1, AadA wild type (Salmonella typhimurium, UniProt Q8ZPX9); assay: ITC binding, wild-type AadA; parameters: species or system Salmonella enterica; conditions: for pKd: ITC; for binding to AadA in the absence of ATP (ITC): data not shown
T1 construct: made in house; host or cells: Escherichia coli BL21 Star
T1 sequence (Q8ZPX9 1-262): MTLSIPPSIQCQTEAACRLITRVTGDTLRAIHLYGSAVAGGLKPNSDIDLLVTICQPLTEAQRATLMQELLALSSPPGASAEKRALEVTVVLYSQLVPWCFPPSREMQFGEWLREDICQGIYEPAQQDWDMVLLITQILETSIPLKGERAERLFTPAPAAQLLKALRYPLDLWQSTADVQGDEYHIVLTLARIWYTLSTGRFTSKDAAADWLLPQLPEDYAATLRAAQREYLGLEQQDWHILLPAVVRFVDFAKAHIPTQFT
Description: (§1) Binding studies were performed at 25°C using a MicroCal iTC200 instrument (GE Healthcare). Wild-type or mutant AadA at 20–30 µM concentration was dialyzed overnight against 50 mM Tris–HCl pH 7.5, 200 mM NaCl, 5 mM MgCl2, 1 mM tris(2-carboxyethyl)phosphine and titrated with 500–1000 µM ATP, streptomycin (Sigma) or spectinomycin (Sigma) freshly dissolved in the same batch of dialysis buffer prior to each experiment. For titration of streptomycin/spectinomycin in the presence of ATP, a first titration of AadA with ATP to saturation was followed by a second titration with streptomycin/spectinomycin in buffer containing an equivalent concentration of ATP as in the cell. In this way, heats of dilution of ATP were avoided. At least […] consecutive injections of 2 µl were applied at 2 min intervals. The data were analyzed using the MicroCal Analysis plugin in Origin. All ITC data were analyzed assuming one set of binding sites. Each experiment was performed at least twice. For spectinomycin, the concentration used to fit the data was adjusted to the estimated active concentration in binding to AadA, assuming 1:1 binding.

AadA R192A = molecular target: T2, AadA R192A (Salmonella typhimurium, UniProt Q8ZPX9, R192A); assay: ITC binding, AadA R192A; parameters: species or system Salmonella enterica; conditions: for pKd: in the presence of ATP, read-out: K d of substrate ligand (streptomycin / spectinomycin)
T2 construct: made in house; host or cells: Escherichia coli BL21 Star
T2 sequence (Q8ZPX9 1-262 R192A): T1 sequence (Q8ZPX9 1-262) with R192A
Description: as §1

[1] = test system: AadA Glu87 mutants (E87A and E87Q); assay: ITC binding, Glu87 mutants of AadA stated together; parameters: species or system Salmonella enterica
Description: as §1

AadA K205A = molecular target: T3, AadA K205A (Salmonella typhimurium, UniProt Q8ZPX9, K205A); assay: ITC binding, AadA K205A; parameters: species or system Salmonella enterica; conditions: for pKd: in the presence of ATP, read-out: K d of substrate ligand (streptomycin / spectinomycin)
T3 construct: made in house; host or cells: Escherichia coli BL21 Star
T3 sequence (Q8ZPX9 1-262 K205A): T1 sequence (Q8ZPX9 1-262) with K205A
Description: as §1

AadA D182N = molecular target: T4, AadA D182N (Salmonella typhimurium, UniProt Q8ZPX9, D182N); assay: ITC binding, AadA D182N; parameters: species or system Salmonella enterica; conditions: 25°C, in the presence of ATP, read-out: K d of substrate ligand (streptomycin / spectinomycin)
T4 construct: made in house; host or cells: Escherichia coli BL21 Star
T4 sequence (Q8ZPX9 1-262 D182N): T1 sequence (Q8ZPX9 1-262) with D182N
Description: as §1

AadA E87A = molecular target: T5, AadA E87A (Salmonella typhimurium, UniProt Q8ZPX9, E87A); assay: ITC binding, AadA E87A; parameters: species or system Salmonella enterica; conditions: 25°C, in the presence of ATP, nb = no binding detected
T5 construct: made in house; host or cells: Escherichia coli BL21 Star
T5 sequence (Q8ZPX9 1-262 E87A): T1 sequence (Q8ZPX9 1-262) with E87A
Description: as §1

AadA W112F = molecular target: T6, AadA W112F (Salmonella typhimurium, UniProt Q8ZPX9, W112F); assay: ITC binding, AadA W112F; parameters: species or system Salmonella enterica; conditions: 25°C, in the presence of ATP, read-out: K d of substrate ligand (streptomycin / spectinomycin)
T6 construct: made in house; host or cells: Escherichia coli BL21 Star
T6 sequence (Q8ZPX9 1-262 W112F): T1 sequence (Q8ZPX9 1-262) with W112F
Description: as §1

bacterial growth = test system: bacterial growth; parameters: method as in vendor (Sigma); conditions: as sold; as estimated from a bacterial growth assay; ref vendor (Sigma); cited from earlier work
AadA E87Q = molecular target: T7, AadA E87Q (Salmonella typhimurium, UniProt Q8ZPX9, E87Q); assay: ITC binding, AadA E87Q; parameters: species or system Salmonella enterica; conditions: 25°C, in the presence of ATP, nb = no binding detected
T7 construct: made in house; host or cells: Escherichia coli BL21 Star
T7 sequence (Q8ZPX9 1-262 E87Q): T1 sequence (Q8ZPX9 1-262) with E87Q
Description: as §1

[2] = ITC, 25°C, 5 mM MgCl2, nb = no binding detected
[3] = 25°C, in the presence of ATP, wild type AadA, read-out: K d of substrate ligand (streptomycin / spectinomycin)

For `Nc1ncnc2c1ncn2[C@@H]1O[C@H](COP(=O)(O)CP(=O)(O)OP(=O)(O)O)[C@@H](O)[C@H]1O` [AMPCPP], the “binding to wild-type AadA (ITC)” value (AadA wild type; nucleotide titrated alone) was “did not show any detectable binding”.
In the case of `Nc1ncnc2c1ncn2[C@@H]1O[C@H](COP(=O)(O)OP(=O)(O)OP(=O)(O)O)[C@@H](O)[C@H]1O` [ATP], the pKd (AadA wild type; wild-type AadA, read-out: K d of ATP) was 4.89, the “ATP binding (ITC)” value (AadA R192A) was “no ATP binding could be detected” and the “K d(ATP)” value (AadA R192A; [2]) was “nb”. For the same compound, the “lower affinity for ATP compared with the wild type” value ([1]; E87Q and E87A vs wild type, ITC) was “threefold to fourfold lower affinity”, the “ATP binding (ITC)” value (AadA K205A) was “no ATP binding could be detected” and the “K d(ATP)” value (AadA K205A; [2]) was “nb”.
For `CN[C@@H]1[C@H](O)[C@H](NC)[C@H]2O[C@@]3(O)C(=O)C[C@@H](C)O[C@H]3O[C@@H]2[C@H]1O` [Spectinomycin, spectinomycin], the pKd (AadA D182N) was less than 4.52, the “K d of substrate ligand (streptomycin / spectinomycin)” value (AadA E87A) was “nb” and the pKd (AadA wild type; [3]) was 6.30. The “binding to AadA in the absence of ATP (ITC)” value (AadA wild type) was “did not display detectable binding”, the “activity in binding to AadA, of the assumed active concentration” value (AadA wild type; from fit of the ITC data assuming 1:1 binding) was 31% and the pKd (AadA R192A; ITC, 25°C) was less than 4.52. For the same compound, the pKd (AadA W112F) was 6.22, the potency (bacterial growth) was 603 µg/mg and the “binding of spectinomycin (ITC)” value ([1]; Glu87 mutants) was “no measurable binding”. For the same compound, the “K d of substrate ligand (streptomycin / spectinomycin)” value (AadA E87Q) was “nb” and the pKd (AadA K205A; ITC, 25°C) was less than 5.00.
With `[H]/N=C(/N)N[C@H]1[C@H](O)[C@@H](O)[C@H](O[C@@H]2O[C@@H](C)[C@](O)(C=O)[C@H]2O[C@@H]2O[C@@H](CO)[C@H](O)[C@@H](O)[C@@H]2NC)[C@@H](N/C(N)=N\[H])[C@@H]1O` [Streptomycin, streptomycin] the pKd (AadA D182N) was 6.15, the pKd (AadA wild type; [3]) was 6.30 and the “binding to AadA in the absence of ATP (ITC)” value (AadA wild type) was “did not display detectable binding”. For the same compound, the pKd (AadA R192A; ITC, 25°C) was less than 4.00, the pKd (AadA W112F) was 6.10 and the “lowered affinity for streptomycin” value ([1]; Glu87 mutants vs wild type, ITC) was 20–40 fold. It also gave a pKd (AadA K205A; ITC, 25°C) of 5.89.
